Experimental data taken from US20050272040A1, “Method for increasing synaptic growth or plasticity” (priority 2002, published 2005).

Tested on: hippocampal cells
Assay: Whole-cell patch-clamp recordings of synaptic charge
Type: cell-based, rat
Settings: for Effect on synaptic charge: perfusion of synthetic rat VGF peptide, 0.1 μM
Method: To examine the relationship between synaptic response and gene expression, an individual cell's electrophysiological response to BDNF was examined in conjunction with single-cell RT-PCR for Arc. […] Whole-cell patch-clamp recordings from 16 cells verified 0.8- to 4.5-fold increase in synaptic charge following 20 minutes BDNF exposure. […] A group of BDNF-treated cells presenting a minimal synaptic response was apparent. This group was categorized as non-responders (FIG. 1B) and the other cells showing a greater response to BDNF were classified as responders. To determine whether cellular basal activity influences the response to BDNF, the average synaptic charge pre-BDNF of the responders (36±13.1 pC, n=7) versus the non-responders (23.2±6.6 pC, n=9) was compared.
To explore a functional role for VGF in neuromodulation, whole-cell patch-clamp recordings on hippocampal cells were performed in the presence of synthetic VGF peptides. The electrophysiological profile of VGF peptides on hippocampal cells was similar to that observed for BDNF (Levine et al. (1996) supra). […] Enhanced synaptic activity was maintained for up to 25 minutes in the continued presence of Thr-Leu-Gln-Pro-62 (SEQ ID NO:14). […] The effects of both Ala-Gln-Glu-Glu-30 (SEQ ID NO:16) and Thr-Leu-Gln-Pro-62 (SEQ ID NO:14) peptides were dose-dependent, saturating at 0.1 μM.
Whole-cell patch clamp recordings were performed after 10-14 days in culture. Currents were recorded with an Axoclamp 200 amplifier, digitized at 2.5 kHz with an INDEC IDA 15125 interface, filtered at 5 kHz and stored. Recording parameters and stimulus protocols were controlled by custom software written with Borland C++ that utilizes device driver libraries supplied by INDEC. Data analysis programs were written with Microsoft Visual Basic. The. external bath solution for voltage clamp recordings was (in mM) 1.67 CaCl2, 1 MgCl2, 5.36 KCl, 137 NaCl, 17 glucose, 10 HEPES and 20 sucrose (neuron recording solution, NRS). The pipette solution contained (in mM) 105 Cs-methanesulfonate, 17.5 CsCl, 10 HEPES, 0.2 EGTA, 8 NaCl, 2 Mg-ATP, 2 Na-ATP, 0.3 Na-GTP, 20 phosphocreatinine, and 50 U/ml creatinine phosphokinase. All recordings were made at room temperature. The typical range of pipette resistance was 3-5 MΩ. Cell capacitance was 10-20 pF and access resistance was 7-20 MΩ. Vacuum perfusion system contained BDNF (50 ng/ml, Preprotech, Princeton, N.J.), NRS as a control or VGF peptides (0.1 μM=740 ng/ml). Three synthetic rat VGF peptides were used: Leu-Glu-Gly-Ser-28 (SEQ ID NO:15) amino acids 285-312 (amidated), Thr-Leu-Gln-Pro-62 (SEQ ID NO:14) amino acids 556-617 and Ala-Gln-Glu-Glu-30 (SEQ ID NO:16) amino acids 588-617. Each data point represents a cell from a separate dish and at least three different platings were used for each condition.
Data were analyzed by integrating the synaptic currents for each sweep (synaptic charge). The charge measurements for all sweeps in a 1 min period were averaged (binned). Baseline is considered the average synaptic charge during the 2 min period (−2 to 0 min) in NRS immediately prior to BDNF or VGF application. Fold increases were then determined by dividing the synaptic charge during BDNF or VGF exposure by the baseline. Recordings were rejected if either the 0-5 min binned time period or 5-10 min binned time period after switching during BDNF or VGF exposure was 2×SEM below baseline, indicating “run down”.

Ala-Gln-Glu-Glu-30: synthetic rat VGF peptide, amino acids 588-617, C-terminal region (AQEE)
Saturating concentration of dose-dependent effect on synaptic charge: 0.1 µM

Thr-Leu-Gln-Pro-62: synthetic rat VGF peptide, amino acids 556-617, C-terminal portion of VGF (TLQP)
Saturating concentration of dose-dependent effect on synaptic charge: 0.1 µM | Time to increased synaptic charge (after start of peptide perfusion): ≤ 5 min | Time enhanced synaptic activity was maintained (continued presence of peptide): up to 25 minutes | Effect on synaptic charge: Increased synaptic charge

Leu-Glu-Gly-Ser-28: synthetic rat VGF peptide, amino acids 285-312 (amidated), N-terminal region
Effect on synaptic charge: no change in synaptic charge
